Earlier results, collected in US7851424B2, “Antimicrobial hand wash” (GOJO Industries, Inc., priority 2006, dated 2010).

Q: For Oc1cc(Cl)ccc1Oc1ccc(Cl)cc1Cl [Triclosan, 2,4,4′-trichloro-2′hydroxy-diphenylether], which pKa is on record?
A: 7.4
